{"source": "patent US20190292243A1", "about": "“PEPTIDES AND METHODS OF USE THEREOF” (Fred Hutchinson Cancer Research Center, priority 2016, published 2019)", "key": {"RH28 flank tumors": {"system": "RH28 flank tumors", "assay": "Chirality in tumor homing, RH28 flank tumors (ex vivo IVIS)", "design": "species or system mice", "conditions": "AF647 conjugates, 10 nmol per mouse intravenously, one hour", "experimental": "This example illustrates the role of chirality in tumor homing peptides of this disclosure. Each L-enantiomer in a peptide of SEQ ID NO: 15 was replaced with the corresponding D-enantiomer (SEQ ID NO: 36). Both peptides were conjugated to AlexaFluor 647 and tumor homing, and homing to the liver and kidneys was assessed by fluorescence quantification. […] Peptide-AF647 conjugates were administered intravenously to mice bearing RH28 flank tumors at 10 nmol per mouse. Mice were euthanized one hour post-administration, organs were necropsied, and tissues were analyzed ex vivo using an IVIS imager. P-values were determined using an unpaired Student's t-test."}, "[1]": {"system": "A375 cells and RH28 cells", "assay": "Modulation of SEQ ID NO: 15-A accumulation in cells by small molecule drugs (flow cytometry median fluorescence)", "format": "cell-based", "conditions": "drug at increasing concentrations with 1 μM SEQ ID NO: 15-A", "from_the_text": "This example illustrates the small molecule drug enhancing properties of peptides of this disclosure. Peptides of this disclosure were useful in enhancing or dampening the potency of several small molecule drugs. […] The Approved Oncology Drugs Plated Set VII was obtained from NCI and included histone deacetylase (HDAC) inhibitors such as vorinostat, belinostat, panobinostat, and […]. The tested set also included tyrosine kinase inhibitors, protease inhibitors, and anthracyclines. A375 cells and RH28 cells were plated at 10,000 cells per well in 96 well plates and allowed to adhere overnight. […] Cells were washed three times with PBS-FBS and once in PBS. Cells were trypsinized, resuspended in PBS-FBS-DAPI, and assessed for average fluorescence as compared to untreated cells by flow cytometry analysis. […] Cells were washed three times with PBS-FBS and once in PBS. Cells were trypsinized, resuspended in PBS-FBS-DAPI, and assessed for average fluorescence as compared to untreated cells by flow cytometry analysis."}, "RH-28 tumor": {"system": "RH-28 tumor", "assay": "Whole-body autoradiography after peptide-MMAE conjugate administration, RH-28 tumor", "format": "in vivo, female Harlan athymic mice", "conditions": "14 nmol, 24 hours after administration", "from_the_text": "This example illustrates whole-body autoradiography and Caspase-3 staining after administration of peptide conjugated to MMAE. MMAE was conjugated to a peptide of SEQ ID NO: 26 with a Val-Cit-PABC linker to produce a SEQ ID NO: 26-B peptide conjugate (SEQ ID NO: 26-B). […]\nAt the end of the dosing period, mice were frozen in a hexane/dry ice bath and then frozen in a block of carboxymethylcellulose. […] Thin, frozen sections of mice were obtained with a microtome, allowed to desiccate in a freezer, and exposed to phosphoimager plates for about ten days.\nThese plates were developed, and the signal (densitometry) from each organ was normalized to the signal found in the heart blood of each mouse. A signal in tissue darker than the signal expected from blood in that tissue indicates peptide accumulation in a region, tissue, structure or cell."}, "[2]": {"system": "Caspase-3 activation in Ramos lymphoma tumor, liver, kidney", "assay": "Caspase-3 staining of tissues after MMAE or peptide-MMAE conjugate", "format": "in vivo, female Harlan athymic mice", "conditions": "7.5 nmol, 48 hours after single systemic administration", "experimental": "This example illustrates whole-body autoradiography and Caspase-3 staining after administration of peptide conjugated to MMAE. MMAE was conjugated to a peptide of SEQ ID NO: 26 with a Val-Cit-PABC linker to produce a SEQ ID NO: 26-B peptide conjugate (SEQ ID NO: 26-B). 7.5 nmol MMAE or 7.5 nmol SEQ ID NO: 26-B were administered to RH-28 tumor-bearing or Ramos lymphoma tumor-bearing female Harlan athymic mice and allowed to freely circulate for 24 or 48 hours."}, "RH28 cell line": {"system": "RH28 cell line", "assay": "Relative viability of RH28 cells", "format": "cell-based", "conditions": "various doses", "experimental": "(§1) This example describes the viability different cell lines to MMAE or MMAE-peptide conjugates and toxicity induced by delivery of MMAE to cells by a peptide conjugate of the disclosure. A peptide of SEQ ID NO: 26 was expressed recombinantly or chemically synthesized and then conjugated to a therapeutic agent, MMAE, by a Val-Cit-PAB linker, producing SEQ ID NO: 26-B peptide conjugate (SEQ ID NO: 26-B). HeLa cells were treated in vitro with MMAE, SEQ ID NO: 26 peptide, or SEQ ID NO: 26-B, and viability was quantified. Ewing's Sarcoma cell lines including the RH28 cell line, A673 cell line, and A204 cell line, were treated in vitro with MMAE or SEQ ID NO: 26-B for 48-72 hours and viability of cells was quantified."}, "A204 cell line": {"system": "A204 cell line", "assay": "Relative viability of A204 cells", "format": "cell-based", "conditions": "48 hours after administration, various doses", "experimental": "as §1"}, "A673 cell line": {"system": "A673 cell line", "assay": "Relative viability of A673 cells", "format": "cell-based", "conditions": "various doses", "experimental": "as §1"}, "[3]": {"conditions": "72 hours of continuous treatment"}}, "note": "Square brackets hold non-standard residues; d marks the D form. Ends that are not written are not given here. Peptide text beside a SMILES is read from it. * marks the point of attachment. Dolaproine = CO[C@@H]([C@@H]1CCCN1)[C@@H](C)C(=O)O; Dil = CC[C@H](C)[C@H](NC)[C@@H](CC(=O)O)OC; X1 = C[C@@H](N*)[C@@H](O)c1ccccc1; NMeV = CN[C@H](C(=O)O)C(C)C", "data": [{"compound": "GSSCEPGRTFRDRCNTCRCGADGRSAACTLRACPNQ (not fully specified (some residues); ends and bridges not checked) [SEQ ID NO: 15]", "values": [{"measurement": "homing to RH28 flank tumor (average radiant efficiency fluorescence), L- vs D-amino acid peptide", "setting": "RH28 flank tumors", "value": "higher homing to flank tumor than a peptide of SEQ ID NO: 36"}]}, {"compound": "Cn1c(=O)n(-c2ccc(C(C)(C)C#N)cc2)c2c3cc(-c4cnc5ccccc5c4)ccc3ncc21", "note": "[BEZ235]", "values": [{"measurement": "modulation of accumulation of SEQ ID NO: 15-A in tumor cells (median fluorescence vs untreated)", "setting": "[1]", "value": "modulate the accumulation of peptides of this disclosure to tumor cells"}]}, {"compound": "SEQ ID NO: 26-Br (GSSCEPGRTFRDRCNTCKCGADGRSAACTLRACPNQ; cysteine pairing not given here; also: conjugate Br)", "values": [{"measurement": "14C signal distribution in tissues (autoradiography)", "setting": "RH-28 tumor", "value": "accumulation in the RH-28 tumor"}]}, {"compound": "Nc1ccn([C@@H]2O[C@H](CO)[C@@H](O)[C@@H]2O)c(=O)n1", "note": "[cytarabine]", "values": [{"measurement": "modulation of accumulation of SEQ ID NO: 15-A in tumor cells (median fluorescence vs untreated)", "setting": "[1]", "value": "modulate the accumulation of peptides of this disclosure to tumor cells"}]}, {"compound": "CC[C@H](C)[C@@H]([C@@H](CC(=O)N1CCC[C@H]1[C@H](OC)[C@@H](C)C(=O)N[C@H](C)[C@@H](O)c1ccccc1)OC)N(C)C(=O)[C@@H](NC(=O)[C@@H](NC)C(C)C)C(C)C", "note": "[MMAE, monomethyl auristatin E] (H-[NMeV]V[Dil][Dolaproine]-X1)", "values": [{"measurement": "Caspase-3 staining in tumor, liver and kidney", "setting": "[2]", "value": "induction of apoptosis"}]}, {"compound": "SEQ ID NO: 15-B (GSSCEPGRTFRDRCNTCRCGADGRSAACTLRACPNQ; cysteine pairing not given here; also: conjugate B)", "values": [{"measurement": "relative viability / growth of RH28 cells", "setting": "RH28 cell line; 48 hours after administration", "value": "inhibited growth of all three cell lines"}, {"measurement": "relative viability / growth of A204 cells", "setting": "A204 cell line", "value": "inhibited growth of all three cell lines"}, {"measurement": "relative viability / growth of A673 cells", "setting": "A673 cell line; 48 hours after administration", "value": "inhibited growth of all three cell lines"}]}, {"compound": "SEQ ID NO: 26-B (GSSCEPGRTFRDRCNTCKCGADGRSAACTLRACPNQ; cysteine pairing not given here; also: conjugate B)", "values": [{"measurement": "relative viability / growth of RH28 cells", "setting": "RH28 cell line; [3]", "value": "inhibited growth of both cell lines"}, {"measurement": "relative viability / growth of A673 cells", "setting": "A673 cell line; [3]", "value": "inhibited growth of both cell lines"}]}, {"compound": "bleomycin", "values": [{"measurement": "modulation of accumulation of SEQ ID NO: 15-A in tumor cells (median fluorescence vs untreated)", "setting": "[1]", "value": "modulate the accumulation of peptides of this disclosure to tumor cells"}]}, {"compound": "O=C(CCCCCCC(=O)Nc1ccccc1)NO", "note": "[vorinostat]", "values": [{"measurement": "modulation of accumulation of SEQ ID NO: 15-A in tumor cells (median fluorescence vs untreated)", "setting": "[1]", "value": "modulate the accumulation of peptides of this disclosure to tumor cells"}]}]}
